Paper PMC7004565, “Nucleotide inhibition of the pancreatic ATP-sensitive K^+ channel explored with patch-clamp fluorometry” (eLife, 2020)
Where two headings read alike, the source gives them in different places.

Target: Kir6.2*,C166S-GFP + SUR1 (Homo sapiens, UniProt Q14654, C166S)
Assay: Bayesian MWC-type model fits to combined patch-clamp fluorometry data
Assay type: biochemical
Parameters: ANAP labelling is specific and only full-length Kir6.2 is expressed at the cell membrane; expressed in transfected cells; host or cells: HEK-293T
Conditions: for Kd: read-out: KA (intrinsic binding affinity to the closed state) (converted)
Description: Our simultaneous binding and current measurements were well fit with a Monod-Wyman-Changeux (MWC)-type model (Figure 2D,E; [Monod et al., 1965]) which has been previously proposed to explain KATP channel inhibition ([Enkvetchakul and Nichols, 2003]; [Craig et al., 2008]; [Vedovato et al., 2015]). In our MWC-type model, each ligand binding event ( KA ) is independent and each bound ligand favours the closed state by the same factor ( D ). Simultaneous measurement of binding (fluorescence) and gating (current) allowed us to obtain well constrained fits to our model. To obtain free parameter ( L , KA , D ) estimates and verify that each parameter was well and uniquely determined, we employed a Bayesian Markov chain Monte Carlo (MCMC) method previously employed by [Hines et al. (2014)]. Using this approach, we constructed posterior probability distributions for the free parameters of our MWC-type model (Figure 2F, Table 3). […] Our estimate of L was quite low and broadly distributed. We repeated our fits with L fixed to a value consistent with previous single channel measurements (0.8, Popen=0.45; [John et al., 1998]; [Enkvetchakul et al., 2000]; [Ribalet et al., 2006]). This had only a very small effect on our estimates of D and KA (Figure 2—figure supplement 1). The broad distribution of L in our fit may represent current rundown which occurs during our patch-clamp recordings and is expected to affect the open-closed equilibrium.
In addition to the full MWC-type model we considered alternate models (Figure 2—figure supplement 2). These included a model in which only the first binding event influences the open-closed equilibrium of the channel (single-binding model; Figure 2—figure supplement 2B, Table 3), and an MWC-style model with an additional parameter C to allow for direct negative cooperativity between binding sites (negative cooperativity model; Figure 2—figure supplement 2C, Table 3). The single-binding model yielded very similar parameter estimates to our full MWC-type model (Figure 2—figure supplement 2D, Table 3). This is a consequence of D being so low that even in the MWC-type model most channels are closed when only a single nucleotide is bound. The cooperative model improved our fits, but not enough to justify the inclusion of an additional free parameter (see Discussion).
The MWC-type models considered (Figure 2 and Figure 2—figure supplement 2) were formulated as follows:(3) F/Fmax=KA[TNPATP](1+KA[TNPATP])^3+LDKA[TNPATP](1+DKA[TNPATP])^3/(1+KA[TNPATP])^4+L(1+DKA[TNPATP])^4 (4) open channels/total channels=L(1+DKA[TNPATP])^4/(1+KA[TNPATP])^4+L(1+DKA[TNPATP])^4
The first was similar to the MWC-type model, except that the channels close after one molecule of TNP-ATP binding with subsequent binding events having no effect.(7) F/Fmax=LDKA[TNPATP](1+3KA[TNPATP]+3KA2[TNPATP]^2+KA3[TNPATP]^3)+KA[TNPATP](1+KA[TNPATP])^3/L(1+4DKA[TNPATP]+6DKA2[TNPATP]^2+4DKA3[TNPATP]^3+DKA4[TNPATP]^4)+(1+KA[TNPATP])^4 (8) I/Imax=L(1+4DKA[TNPATP]+6DKA2[TNPATP]^2+4DKA3[TNPATP]^3+DKA4[TNPATP]^4)/L(1+4DKA[TNPATP]+6DKA2[TNPATP]^2+4DKA3[TNPATP]^3+DKA4[TNPATP]^4)+(1+KA[TNPATP])^4⋅1+L/L
The second alternate model was the same as the full MWC model, but with an additional term C describing binding cooperativity between Kir6.2 subunits.(9) F/Fmax=LDKA[TNPATP](1+3CDKA[TNPATP]+3C^2D^2KA2[TNPATP]^2+C^3D^3KA3[TNPATP]^3)+KA[TNPATP](1+3CKA[TNPATP])+3C^2KA2[TNPATP]^2+C^3KA3[TNPATP]^3)/L(1+4DKA[TNPATP]+6CD^2KA2[TNPATP]^2+4C^2D^3KA3[TNPATP]^3+C^3D^4KA4[TNPATP]^4)+1+4KA[TNPATP]+6CKA2[TNPATP]^2+4C^2KA3[TNPATP]^3+C^3KA4[TNPATP]^4 (10) I/Imax=L(1+4DKA[TNPATP]+6CD^2KA2[TNPATP]^2+4C^2D^3KA3[TNPATP]^3+C^3D^4KA4[TNPATP]^4)/L(1+4DKA[TNPATP]+6CD^2KA2[TNPATP]^2+4C^2D^3KA3[TNPATP]^3+C^3D^4KA4[TNPATP]^4)+1+4KA[TNPATP]+6C^2KA2[TNPATP]^2+4C^2KA3[TNPATP]^3+C^3KA4[TNPATP]^4⋅1+L/L […]

[1] = Full MWC model, median estimate
[2] = Single-site (single-binding) model

Chain of Kir6.2*,C166S-GFP + SUR1 (Q14654 whole entry C166S): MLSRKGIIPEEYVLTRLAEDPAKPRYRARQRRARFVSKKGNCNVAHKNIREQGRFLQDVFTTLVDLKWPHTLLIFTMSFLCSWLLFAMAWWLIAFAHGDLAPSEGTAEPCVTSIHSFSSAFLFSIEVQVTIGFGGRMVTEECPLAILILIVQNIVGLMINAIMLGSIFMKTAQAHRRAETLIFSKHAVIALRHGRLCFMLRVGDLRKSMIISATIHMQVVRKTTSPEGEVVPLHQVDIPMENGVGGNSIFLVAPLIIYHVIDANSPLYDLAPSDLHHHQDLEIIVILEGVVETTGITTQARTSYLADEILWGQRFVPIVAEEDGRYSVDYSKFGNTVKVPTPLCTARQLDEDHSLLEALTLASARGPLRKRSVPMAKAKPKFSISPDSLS
Chain of Kir6.2*,C166S-GFP + SUR1 (Q09428 whole entry partner): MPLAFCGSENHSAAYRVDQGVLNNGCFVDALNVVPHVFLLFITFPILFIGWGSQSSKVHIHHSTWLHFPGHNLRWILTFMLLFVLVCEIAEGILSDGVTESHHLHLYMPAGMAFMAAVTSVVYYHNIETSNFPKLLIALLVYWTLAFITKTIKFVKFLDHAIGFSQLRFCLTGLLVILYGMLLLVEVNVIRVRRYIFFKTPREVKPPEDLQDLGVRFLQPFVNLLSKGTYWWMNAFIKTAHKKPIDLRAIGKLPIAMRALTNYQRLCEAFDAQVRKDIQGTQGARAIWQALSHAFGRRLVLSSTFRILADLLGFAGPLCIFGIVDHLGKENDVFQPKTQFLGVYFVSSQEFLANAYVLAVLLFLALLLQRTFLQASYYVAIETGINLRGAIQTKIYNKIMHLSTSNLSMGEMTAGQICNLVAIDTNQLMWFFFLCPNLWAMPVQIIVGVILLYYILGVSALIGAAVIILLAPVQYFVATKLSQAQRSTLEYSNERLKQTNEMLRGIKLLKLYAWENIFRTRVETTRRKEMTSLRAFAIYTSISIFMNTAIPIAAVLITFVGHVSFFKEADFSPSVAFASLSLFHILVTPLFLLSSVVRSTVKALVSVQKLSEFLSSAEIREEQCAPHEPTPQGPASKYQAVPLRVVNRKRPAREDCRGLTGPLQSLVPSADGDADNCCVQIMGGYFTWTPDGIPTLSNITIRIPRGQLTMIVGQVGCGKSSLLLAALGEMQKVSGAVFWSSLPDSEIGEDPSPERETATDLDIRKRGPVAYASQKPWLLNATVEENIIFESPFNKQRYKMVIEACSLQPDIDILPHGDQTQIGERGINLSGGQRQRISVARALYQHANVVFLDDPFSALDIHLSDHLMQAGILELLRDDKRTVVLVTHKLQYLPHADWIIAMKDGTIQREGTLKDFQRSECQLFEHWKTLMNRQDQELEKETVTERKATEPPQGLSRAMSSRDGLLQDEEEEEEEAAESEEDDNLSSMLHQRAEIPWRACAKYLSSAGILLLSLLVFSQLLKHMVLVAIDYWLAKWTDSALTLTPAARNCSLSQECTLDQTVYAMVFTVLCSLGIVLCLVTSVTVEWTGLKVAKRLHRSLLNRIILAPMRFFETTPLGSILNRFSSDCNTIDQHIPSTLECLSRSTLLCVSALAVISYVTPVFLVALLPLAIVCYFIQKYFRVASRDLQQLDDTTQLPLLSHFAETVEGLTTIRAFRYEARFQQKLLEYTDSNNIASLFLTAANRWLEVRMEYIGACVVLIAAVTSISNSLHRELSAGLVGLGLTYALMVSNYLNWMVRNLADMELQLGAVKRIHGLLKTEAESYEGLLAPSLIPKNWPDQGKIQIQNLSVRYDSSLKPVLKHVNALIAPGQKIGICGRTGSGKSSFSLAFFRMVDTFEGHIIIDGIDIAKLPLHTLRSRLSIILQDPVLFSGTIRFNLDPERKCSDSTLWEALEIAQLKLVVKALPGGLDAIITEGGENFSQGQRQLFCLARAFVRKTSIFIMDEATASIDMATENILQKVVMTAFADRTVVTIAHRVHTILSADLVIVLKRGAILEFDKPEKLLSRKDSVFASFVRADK

## Nc1ncnc2c1ncn2[C@@H]1O[C@H](COP(=O)(O)OP(=O)(O)OP(=O)(O)O)[C@H]2OC3(O[C@H]21)C([N+](=O)[O-])=CC(=[N+]([O-])[O-])C=C3[N+](=O)[O-] (stereo partly shown) [TNP-ATP, trinitrophenyl-ATP]
[1]
  D (factor by which nucleotide binding favours channel closure): 0.84
  L (unliganded open-closed equilibrium constant): 0.29 log10
  Kd: 66.1 µM
Negative cooperativity model
  C (binding cooperativity between Kir6.2 subunits): 0.52
  D (factor by which nucleotide binding favours channel closure): 0.83
  L (unliganded open-closed equilibrium constant): 0.32 log10
  Kd: 37.2 µM
[2]
  D (factor by which nucleotide binding favours channel closure): 0.70
  L (unliganded open-closed equilibrium constant): 0.09 log10
  Kd: 70.8 µM
